# Measurements: US20230129723A1, “EN[…] OF 3,4-METHYLENEDIOXYMETHAMPHETAMINE AND RELATED METABOLITES AND USES THEREOF” (ATAI Life Sciences AG, priority 2021, published 2023)
# Experiments:
# [1] = tested on: rat embryonic cortical neuron cultures; test: Neurite outgrowth in primary rat embryonic cortical neuron cultures, single test articles (Example 1); assay type: cell-based; conditions: 3 days treatment, compared to 0.1% sterile water vehicle control
# Text: Primary rat cortical neuron experimental methods: Female Wistar rats of 17 days gestation were killed by cervical dislocation and the fetuses (typically 6 to 8 in number) were removed from the uterus. Fetal brains were placed in ice-cold medium of Leibovitz (L15, Gibco, France). Cortex was dissected and meninges were carefully removed. The cortical neurons were dissociated by trypsinization (trypsin-EDTA, Gibco) in the presence of DNAse I (Roche, France). The reaction was stopped by addition of Dulbecco's Modified Eagle Medium (DMEM; Gibco) with 10% of fetal bovine serum (FBS; Gibco). The suspension was triturated with a 10-ml pipette and a 21-gauge needle syringe and centrifuged. The pellet of dissociated cells was resuspended in a medium consisting of Neurobasal (Gibco) supplemented with 2% B27 supplement (Gibco), 0.5 mM L-Glutamine (Gibco), and an antibiotic-antimycotic mixture. Viable cells were counted in a Neubauer cytometer and cells were seeded in 96-well plates (Costar) precoated with poly-L-lysine at 10,000 cells/well.
# Stock solutions were prepared in sterile water at 10 mM, and stored at −20° C. until use. Further dilution will be performed in culture in the medium on the day of the treatment. 0.1% Sterile water will be present in all tested conditions. The following conditions were tested: 1) Racemic MDMA (10000, 1000, 100, 10, 1, 0.1, 0.01, 0.001 nM), 2) S(+)-MDMA (10000, 1000, 100, 10, 1, 0.1, 0.01, 0.001 nM), 3) R(−)-MDMA (10000, 1000, 100, 10, 1, 0.1, 0.01, 0.001 nM), 4) Racemic MDA (10000, 1000, 100, 10, 1, 0.1, 0.01, 0.001 nM), 5) S(+)-MDA (10000, 1000, 100, 10, 1, 0.1, 0.01, 0.001 nM), and 6) R(−)-MDA (10000, 1000, 100, 10, 1, 0.1, 0.01, 0.001 nM).
# The experimental protocol was performed in 2 independent cultures (i.e., from 2 different pregnant rats). For each culture, each condition was tested in sextuplet (6 wells per condition per culture for a total of 12 wells per condition). […] After three days of plating and compound treatment (Day3), cultures were fixed with paraformaldehyde in phosphate buffered saline at 4° C. (PBS, 4%, Sigma). Then, all subsequent steps were performed at room temperature.
# Cells were successively permeabilized for 30 minutes using 0.1% triton, saturated with PBS containing 3% bovine serum albumin (BSA) and incubated for 1 hour with anti-beta III tubulin antibody (T5168, Sigma). Cells were first washed 3 times and then were incubated for 1 hour with goat anti-mouse secondary antibody coupled with Alexa Fluor 488 (AF488, Invitrogen A11001). Finally, nuclei were stained with 4′-6-diamidino-2-phenylindole (DAPI). After rinsing the cells with PBS, the plate was imaged and neurite networks were examined and analyzed using a High-Content Screening platform (CellInsight CX5, Thermo Scientific) with integrated Photometrics high-resolution fluorescent camera, Olympus objective (10×) and HCS Studio Cell Analysis Software.
# Approximately 2,000 neurons per well were analyzed using a validated cortex neuron outgrowth algorithm that utilizes parameters optimized for analysis of embryonic rat cortical neuron cultures. The HCS Studio Cell Analysis Software output will include values for neurite number total count, neurite total length (μm) and total number of branch points for each of the 6 wells per culture. The evaluation of neurite outgrowth was performed using the average number of neurites per neuron, the average total neurite length per neuron (μm) and the average number of branch points per neuron across 12 wells. Data also were transformed to percent (%) of the average vehicle control value. Results were expressed as mean (±s.e.m.) of the transformed (% of vehicle control) data. Statistical analyses were performed on transformed percent of the average vehicle control data for each measure for each test article using one-way analysis of variance (Anova, StatView or GraphPad Prism). Where applicable, Dunnett's test was used for multiple pairwise comparisons to the negative control (vehicle) condition. […]
# [2] = tested on: rat embryonic cortical neuron cultures; test: Neurite outgrowth in primary rat embryonic cortical neuron cultures, racemic and non-racemic R(−)/S(+)-MDMA mixtures (Example 2); assay type: cell-based; conditions: concentrations of R(−)- and S(+)-MDMA as in the label (alone: 10 uM), 3 days treatment, compared to vehicle control, Anova/Dunnett p<0.05
# Text: Primary rat cortical neuron experimental methods: Female Wistar rats of 17 days gestation are killed by cervical dislocation and the fetuses (typically 6 to 8 in number) are removed from the uterus. Their brains are placed in ice-cold medium of Leibovitz (L15, Gibco, France). Cortex is dissected and meninges are carefully removed. The cortical neurons are dissociated by trypsinization (trypsin-EDTA, Gibco) in presence of DNAse I (Roche, France). The reaction is stopped by addition of Dulbecco's Modified Eagle Medium (DMEM; Gibco) with 10% of fetal bovine serum (FBS; Gibco). The suspension is triturated with a 10-ml pipette and using a needle syringe 21G and centrifuged. The pellet of dissociated cells is resuspended in a medium consisting of Neurobasal (Gibco) supplemented with 2% B27 supplement (Gibco), 0.5 mM L-Glutamine (Gibco), an antibiotic-antimycotic mixture. Viable cells are counted in a Neubauer cytometer and cells are seeded in 96-well plate (Costar) precoated with poly-L-lysine at 10 000cells/well.
# The protocol is performed in either 1 or 2 independent cultures (i.e., from 1 or 2 different pregnant rats). For each culture, each condition is performed in sextuplet (6 wells per condition per culture from 1 rat, or a total of 12 wells per condition when 2 rats/cultures are used).
# Cells are treated with the test compounds R(−)-MDMA and S(+)-MDMA as described in the following Tables below.
# After three days of plating and test compound treatment (Day3), cultures are fixed with paraformaldehyde in phosphate buffered saline at 4° C. (PBS, 4%, Sigma). Then all steps will be performed at room temperature. Cells are successively permeabilized 30 min using 0.1% triton, saturated with PBS containing 3% bovine serum albumin (BSA) and incubated 1 h with anti-beta III tubulin antibody (T5168, Sigma). Cells are first washed 3 times and are then incubated 1 h with goat anti-mouse secondary antibody coupled with Alexa Fluor 488 (AF488, Invitrogen A11001). Finally, nuclei are stained with 4′-6-diamidino-2-phenylindole (DAPI). After rinsing the cells with PBS, the plate is filmed and neurite networks are examined and analyzed using a High-Content Screening platform (CellInsight CX5, Thermo Scientific) with integrated Photometrics high-resolution fluorescent camera, Olympus objective (10×) and HCS Studio Cell Analysis Software.
# Approximately 2000 neurons per well were analyzed using a validated Cortex Neuron Outgrowth algorithm established by Neurofit that utilizes parameters optimized for analysis of embryonic rat cortical neuron cultures. The HCS Studio Cell Analysis Software output will include values for neurite total count number, neurite total length (μm) and total number of branch points for each of the 6 wells per culture. The evaluation of neurite outgrowth was performed using the average number of neurites per neuron, the average of total neurite length per neuron (μm) and the average number of branchpoint per neuron across 6 wells of each culture (6 wells total (1 rat used) or 12 wells total (2 rats used). Data were transformed to % of the average vehicle control value.
# [3] = at any tested concentration (0.001-10000 nM)
SMILES,"neurite number ([1]; at 10 μM, Anova/Dunnett p<0.05)","neurite total length (μm) ([1]; at 10 μM, Anova/Dunnett p<0.05)","total number of branch points ([1]; at 10 μM, Anova/Dunnett p<0.05)","neurite number [1, 3]","neurite total length (μm) [1, 3]","total number of branch points [1, 3]",neurite number ([1]; at 0.0001 μM),average number of branchpoints per neuron [2],average number of neurites per neuron [2],average total neurite length per neuron [2]
"CNC(C)Cc1ccc2c(c1)OCO2 (racemic) [Racemic R,S(+/−)-MDMA, 3,4-Methylenedioxymethamphetamine]",significantly increased,significantly increased,significantly increased,,,,,,,
"CC(N)Cc1ccc2c(c1)OCO2 (racemic) [racemic R,S(+/−)-MDA, 3,4-methylenedioxyamphetamine, reference compound]",,,,did not significantly alter,did not significantly alter,did not significantly alter,,,,
C[C@@H](N)Cc1ccc2c(c1)OCO2 [R(−)-MDA],,,,did not significantly alter,did not significantly alter,did not significantly alter,,,,
"CN[C@H](C)Cc1ccc2c(c1)OCO2 [R(−)-MDMA, (R)-3,4-methylenedioxymethamphetamine]",significantly increased,significantly increased,significantly increased,,,,significantly increased,did not have significant effects,did not have significant effects,significantly induced
C[C@H](N)Cc1ccc2c(c1)OCO2 [S(+)-MDA],,,,did not significantly alter,did not significantly alter,did not significantly alter,,,,
CN[C@@H](C)Cc1ccc2c(c1)OCO2 [S(+)-MDMA],,,,did not significantly alter,did not significantly alter,did not significantly alter,,did not significantly induce,did not significantly induce,did not significantly induce
